Consider 5 compounds from ChEMBL document CHEMBL4342525, “Synthesis and Biochemical Evaluation of Noncyclic Nucleotide Exchange Proteins Directly Activated by cAMP 1 (EPAC1) Regulators” (J Med Chem, 2020).

For series [1], the target named is T1, Rap guanine nucleotide exchange factor 3 (Homo sapiens, UniProt O95398).
T1 sequence (O95398 whole entry): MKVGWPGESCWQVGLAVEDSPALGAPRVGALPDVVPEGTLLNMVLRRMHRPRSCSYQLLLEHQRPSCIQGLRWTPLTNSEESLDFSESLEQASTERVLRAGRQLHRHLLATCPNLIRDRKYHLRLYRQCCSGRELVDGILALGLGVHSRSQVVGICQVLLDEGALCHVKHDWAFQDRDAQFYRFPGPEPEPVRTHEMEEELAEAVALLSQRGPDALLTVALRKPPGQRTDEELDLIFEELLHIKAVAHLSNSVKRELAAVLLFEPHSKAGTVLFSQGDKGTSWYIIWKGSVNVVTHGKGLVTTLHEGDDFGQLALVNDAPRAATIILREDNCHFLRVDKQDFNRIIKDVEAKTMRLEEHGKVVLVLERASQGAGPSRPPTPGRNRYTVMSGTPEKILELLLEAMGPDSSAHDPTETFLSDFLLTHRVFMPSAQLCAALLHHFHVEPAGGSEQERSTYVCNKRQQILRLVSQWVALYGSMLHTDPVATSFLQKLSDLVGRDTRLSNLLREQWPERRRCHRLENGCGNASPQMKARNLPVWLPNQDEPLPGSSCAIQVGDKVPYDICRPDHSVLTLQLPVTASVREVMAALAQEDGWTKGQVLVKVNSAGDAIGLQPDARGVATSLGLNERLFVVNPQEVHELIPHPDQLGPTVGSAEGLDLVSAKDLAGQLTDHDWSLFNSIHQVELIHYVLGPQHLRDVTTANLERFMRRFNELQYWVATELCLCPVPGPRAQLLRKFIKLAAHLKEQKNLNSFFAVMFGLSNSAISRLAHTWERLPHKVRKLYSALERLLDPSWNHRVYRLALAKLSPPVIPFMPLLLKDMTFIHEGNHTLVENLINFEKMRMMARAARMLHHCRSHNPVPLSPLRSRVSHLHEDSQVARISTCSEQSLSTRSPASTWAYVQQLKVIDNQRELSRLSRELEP
Description: Activation of recombinant EPAC1 (149 to 881 residues) (unknown origin) assessed as stimulation of dissociation of fluorescent MANT-GDP from recombinant Rap1b in presence of excess nonfluorescent nucleotides by fluorescence based in-vitro GEF assay.

In series [2] the target is T2, Rap guanine nucleotide exchange factor 3 (Homo sapiens) (UniProt O95398).
T2 sequence (whole entry): T1 sequence (O95398 whole entry)
Description: Activity at recombinant EPAC1 (149 to 881 residues) (unknown origin) assessed as reduction in cAMP-induced stimulation of dissociation of fluorescent MANT-GDP from recombinant Rap1b at 500 uM in presence of excess nonfluorescent nucleotides by fluorescence based in-vitro GEF assay.

In series [3] the target is T2, Rap guanine nucleotide exchange factor 3 (Homo sapiens). Description: Activation of EPAC1 (unknown origin) expressed in U2OS cells at 100 uM pre-incubated for 10 mins before 8-pCPT-2'-O-Me-cAMP stimulation for 10 mins using GST-RalGDS-RBD by Western blot analysis based active GTP-bound Rap1 pull down assay. In kind it is cell-based.
Series [4] is described as follows: Activation of PKA in human U2OS cells stably transfected with EPAC1 assessed as increase in VASP phosphorylation at 100 uM by Western blot analysis. In kind it is cell-based. On the technique in general: Immunoblotting shows a protein as a band on a membrane.
Series [5] has as its target T2, Rap guanine nucleotide exchange factor 3 (Homo sapiens). Put plainly: Activation of recombinant EPAC1 (149 to 881 residues) (unknown origin) assessed as stimulation of dissociation of fluorescent MANT-GDP from recombinant Rap1b at 500 uM in presence of excess nonfluorescent nucleotides by fluorescence based in-vitro GEF assay relative to cAMP.
The nature of series [6]: Binding affinity to GST-tagged recombinant EPAC1 delta-DEP mutant (149 to 881 residues) (unknown origin) expressed in Escherichia coli BL21 Star (DE3) incubated for 4 hrs by 8-NBD-cAMP competition binding assay. The arrangement: species or system Homo sapiens.
Series [7] has as its target T2, Rap guanine nucleotide exchange factor 3 (Homo sapiens). Put plainly: Activation of EPAC1 (unknown origin) expressed in U2OS cells at 100 uM incubated for 10 mins using GST-RalGDS-RBD by Western blot analysis based active GTP-bound Rap1 pull down assay. Format: cell-based.
Series [8] has the same target. Description: Activation of recombinant EPAC1 (149 to 881 residues) (unknown origin) assessed as stimulation of dissociation of fluorescent MANT-GDP from recombinant Rap1b at 10 uM in presence of excess nonfluorescent nucleotides by fluorescence based in-vitro GEF assay relative to cAMP.
Series [9] has the same target. Description: Binding affinity to GST-tagged recombinant EPAC1 CNBD (169 to 318 residues) (unknown origin) expressed in Escherichia coli BL21 Star (DE3) assessed as relative fluorescence intensity incubated for 4 hrs by 8-NBD-cAMP competition binding assay relative to control. The arrangement: concentration or dose not given beside the values.
The target of series [10] is T1, Rap guanine nucleotide exchange factor 3. Put plainly: Binding affinity to GST-tagged recombinant EPAC1 CNBD (169 to 318 residues) (unknown origin) expressed in Escherichia coli BL21 Star (DE3) incubated for 4 hrs by 8-NBD-cAMP competition binding assay.
The target in series [11] is T2, Rap guanine nucleotide exchange factor 3 (Homo sapiens). Description: Activation of EPAC1 in HUVEC assessed as reduction in IL-6-promoted signaling by measuring pERK protein levels at 100 uM pre-incubated for 30 mins before IL6 and sIL6Ralpha stimulation for 5 hrs by Western blotting analysis. In kind it is cell-based.
For series [12] the target is unchanged. Put plainly: Activation of EPAC1 in HUVEC assessed as reduction in IL-6-promoted signaling by measuring VCAM1 protein expression at 100 uM pre-incubated for 30 mins before IL6 and sIL6Ralpha stimulation for 5 hrs by Western blotting analysis. In kind it is cell-based.
Series [13] has the same target. Description: Activity at EPAC1 in HUVEC assessed as promotion of IL-6-promoted signaling by measuring increased pAKT protein levels at 100 uM pre-incubated for 30 mins before IL6 and sIL6Ralpha stimulation for 5 hrs by Western blotting analysis. In kind it is cell-based.
For series [14] the target is unchanged. Description: Activation of EPAC1 in HUVEC assessed as reduction in IL-6-promoted signaling by measuring pSTAT3 protein levels at 100 uM pre-incubated for 30 mins before IL6 and sIL6Ralpha stimulation for 5 hrs by Western blotting analysis. In kind it is cell-based.
Series [15] shares this target. Description: Activation of EPAC1 in HUVEC assessed as reduction in IL-6-promoted signaling by measuring ICAM1 protein expression at 100 uM pre-incubated for 30 mins before IL6 and sIL6Ralpha stimulation for 5 hrs by Western blotting analysis. In kind it is cell-based.
Series [16] shares this target. Put plainly: Activation of EPAC1 in HUVEC assessed as reduction in IL-6-promoted signaling by measuring SELE protein expression at 100 uM pre-incubated for 30 mins before IL6 and sIL6Ralpha stimulation for 5 hrs by Western blotting analysis. Format: cell-based.
The target is the same in series [17]. Put plainly: Activation of EPAC1 in HUVEC assessed as reduction in IL-6-promoted signaling by measuring pAKT protein levels at 100 uM pre-incubated for 30 mins before IL6 and sIL6Ralpha stimulation for 5 hrs by Western blotting analysis. In kind it is cell-based.
Series [18] has the same target. Put plainly: Activation of recombinant EPAC1 (149 to 881 residues) (unknown origin) assessed as stimulation of dissociation of fluorescent MANT-GDP from recombinant Rap1b up to 100 uM in presence of excess nonfluorescent nucleotides by fluorescence based in-vitro GEF assay relative to cAMP.

pEC50, pIC50: −log10 of the molar value. Activity calls are given as the source filed them. No cut-off for these calls is given here.

As usually defined, the pEC50 is the EC50 on a negative log10 scale, so that one unit is a factor of ten. In general, pIC50 refers to the IC50 on a negative log10 scale, so that one unit is a factor of ten. For the compound `COc1ccc(S(=O)(=O)NC(=O)COc2ccc3ccccc3c2)c(OC)c1`, in series [1], the pEC50 was 5.30. The outcome in series [2], in [3], in series [7] and in series [8] was Active. Also, the Activity entry was “Not Active” in series [4], 2% in [5] and 23% in series [9]. Also, in series [6], the pIC50 is 5.31.
As to `Cc1ccc(S(=O)(=O)NC(=O)COc2ccc3ccccc3c2)c(C)c1`, the pIC50 was 4.92 to 5.04 in series [10] and 5.17 in [6]. Besides, the result in series [11] was inactive. Moreover, the result in series [12], in [13], in series [7] and in [14] was Active. For the same compound, the Activity in [9] was 61%.
On to `Cc1cc(Nc2ncccc2C(F)(F)F)cc(S(=O)(=O)NC(=O)COc2ccc3ccccc3c2)c1`, for which the pIC50 in [10] is 5.34. Further, the Activity entry in [4] was “Not Active”; in [9], 56%. The outcome in series [11], in series [15] and in series [16] was inactive. Moreover, the result in series [12], in series [13], in series [7], in series [8] and in [14] was Active.
As to `COc1ccc2ccc(OCC(=O)NS(=O)(=O)c3ccc(N)cc3OC)cc2c1`, the pEC50 in series [1] is 5.30. In addition, the result in series [2], in series [3], in series [7] and in series [8] was Active. Besides, the Activity entry in [4] is “Not Active”; in series [5], 2%; in series [9] it was 7%. In addition, the outcome in series [11], in series [12], in series [15], in series [16], in series [17] and in [14] was inactive. In addition, in series [6], the pIC50 was 6.22.
Regarding `COc1ccc2ccc(OCC(=O)NS(=O)(=O)c3ccc4ccccc4c3)cc2c1`, in series [1], the pEC50 was 5.30. Moreover, the result in series [3], in series [18] and in series [8] was Active. Also, the Activity result in [4] is “Not Active”; in series [9] it was 14%. In series [6], the pIC50 was 6.30.
